The values that follow come from patent publication US20110217265A1, “Screening for Inhibitors of HCV Amphipathic Helix (AH) Function” (priority 2008, published 2011).

One experiment concerns the target T1, 4BAH2 peptide (Hepatitis C virus genotype 1b, UniProt Q9WMX2).
T1 construct: purchased Anaspec Corporation (San Jose, Calif., USA); host or cells: chemical synthesis
Briefly: AFM of 4BAH2 peptide oligomerization on SiOx substrate. It counts as biochemical. Here is the method:
Atomic Force Microscopy. The AFM experiments were carried out on a XE-Bio (Park Systems Suwon, Korea) in contact and non-contact modes. Rectangular-shaped silicon cantilevers were used (SICON for contact mode and ACT for non-contact mode, AppNano, Santa Clara, Calif.). […] All measurements were performed in a PBS buffer. Images in fluid were obtained both in contact mode with an imaging force of less than 200 pN and in noncontact mode. However, images presented in this manuscript were only obtained in non-contact mode in fluid. The scan line speed was optimized between 0.3 Hz to 1 Hz with a pixel number of 256×256, depending on the scan size. Images were recorded in height, amplitude, phase, and error modes. All measurements were done on the height images. All images shown were subjected to a first order plane-fitting procedure to compensate for sample tilt. The cross-sectional analysis was carried out on images subjected only to a first order plane-fitting procedure. Topographical and grain analyses were performed using the software XEI 1.7.1 supplied by Park Systems (Suwon, Korea).

In experiment [1] the test system is subgenomic genotype 1b replicon RNA (Bart79ILuc). Briefly: Transient genotype 1b subgenomic replicon (Bart79I-luc) luciferase replication assay in Huh7.5 cells. It counts as cell-based, Hepatitis C Virus genotype 1b. Particulars: luciferase at 72 hr of treatment. The source says:
Plasmids. Bart79I, a high-efficiency subgenomic replicon of HCV (28), harbors the neomycin resistance gene (neo) and the HCV nonstructural proteins. The Bart-Luciferase plasmid, Bart79I-luc, was cloned from the Bart791 parent (29) and the pGL3-Basic parent (Promega). In brief, a NotI site was introduced after the 15th amino acid of Core in Bart791 using PCR mutagenesis. The plasmid pcDNA3.1-NS4B, which encodes the Con1 NS4B sequence and was used to study the protein stability of the wild type and mutant NS4Bs, was described previously. […]
Transient Replication Assays. […] Firefly luciferase activities were measured at 8, 48, 96, and 144 hr post electroporation by using a firefly luciferase kit from Promega (Madison, Wis.).
Antiviral Assays of Compounds. […] Plates were then scanned and fluorescence was detected by using a FLEXstation II 384 (Molecular Devices). […] Viral RNA replication was determined using Renilla (FL-J6/JFH-5′C19Rluc2AUbi) or firefly (Bart791-luc) luciferase assays, according to the manufacturer's (Promega) directions. The same samples subjected to the viability assay described below were analyzed in this assay. […] Luminescence was measured over 10 seconds with a 2-second delay using a Berthold LB 96 V luminometer. […]
(In general: In antiviral work, replicon cells carry a viral genome segment that copies itself.)

Entries after “also recorded” stand apart in the source; their conditions may differ.

T1 sequence (Q9WMX2 1754-1776): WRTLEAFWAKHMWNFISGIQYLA

As for `CC(C)CN(C)c1nc(N)c(C(=O)NC(=N)N)nc1Cl` [C4, 3-amino-N-carbamimidoyl-6-chloro-5-(isobutyl(methyl)amino)pyrazine-2-carboxamide], on 4BAH2 peptide, the “Effect on 4BAH2 peptide aggregation / self-oligomerization (AFM)” value was “inhibit peptide aggregation”. The “Inhibition of HCV genotype 1b genome replication” value in experiment [1] is “inhibits HCV replication; also recorded: dose-dependent inhibition”.
